Experimental data: BigSolDB 2.1

CC(CN1c2ccccc2S(=O)(=O)c2ccccc21)N(C)C.Cl (centres undefined)
Conditions	solubility (mole fraction)
in DMF, 278.2 K	0.00381
in DMF, 283.2 K	0.00418
in DMF, 288.27 K	0.00448
in DMF, 293.18 K	0.00474
in DMF, 298.17 K	0.00514
in DMF, 303.19 K	0.00554
in DMF, 308.23 K	0.00601
in DMF, 313.17 K	0.00658
in DMF, 318.23 K	0.00716
in DMF, 323.18 K	0.00783
in NMP, 278.16 K	0.00641
in NMP, 283.2 K	0.00692
in NMP, 288.24 K	0.00747
in NMP, 293.16 K	0.00791
in NMP, 298.17 K	0.00843
in NMP, 308.17 K	0.00975
in NMP, 313.21 K	0.0104
in NMP, 318.23 K	0.0111
in NMP, 323.27 K	0.0119
in acetic acid, 293.16 K	0.00208
in acetic acid, 298.18 K	0.00277
in acetic acid, 303.18 K	0.00347
in acetic acid, 308.2 K	0.00433
in acetic acid, 313.17 K	0.00548
in acetic acid, 318.22 K	0.00689
in acetic acid, 328.23 K	0.01
in acetic acid, 333.19 K	0.0123
in acetic acid, 338.2 K	0.0149
in acetone, 278.2 K	0.000103
in acetone, 283.16 K	0.000124
in acetone, 288.16 K	0.00015
in acetone, 293.17 K	0.000177
in acetone, 298.18 K	0.000199
in acetone, 303.17 K	0.000216
in acetone, 308.21 K	0.000237
in acetone, 313.2 K	0.000258
in acetone, 318.18 K	0.000278
in acetone, 323.17 K	0.000298
in ethanol, 278.16 K	0.000269
in ethanol, 283.21 K	0.000296
in ethanol, 288.22 K	0.000322
in ethanol, 293.18 K	0.000365
in ethanol, 298.21 K	0.000419
in ethanol, 303.22 K	0.0005
in ethanol, 308.18 K	0.000589
in ethanol, 313.17 K	0.000686
in ethanol, 318.2 K	0.000829
in methanol, 278.17 K	0.000759
in methanol, 283.22 K	0.000925
in methanol, 288.19 K	0.00112
in methanol, 293.26 K	0.00137
in methanol, 298.17 K	0.00156
in methanol, 303.19 K	0.00185
in methanol, 308.21 K	0.00225
in methanol, 313.21 K	0.00284
in methanol, 318.18 K	0.0034
in water, 278.28 K	0.00136
in water, 283.27 K	0.00163
in water, 288.27 K	0.002
in water, 293.24 K	0.00246
in water, 298.18 K	0.00302
in water, 303.18 K	0.00379
in water, 308.16 K	0.00484
in water, 313.22 K	0.00625
